Data taken from article PMC7156724, “Potent BRD4 inhibitor suppresses cancer cell-macrophage interaction” (Nature Communications, 2020).
Several values for one entry are separate records, joined by “and”; a condition that tells them apart may be missing. Equal values may be shown once.

Legend:
[1] = system: MDA-MB231 TNBC; experiment: MDA-MB231 TNBC xenograft growth; type: in vivo, mouse; design: MDA-MB231 tumor size (Sup Fig.9d; quantity and unit not given): unit not given here
Description: 4–6 weeks old female BALB/c nude mice were used for most experiments, with the exception of 6–8 weeks old female C57BL/6 mice were used for B16F10 experiments, and 6–8 weeks old male BALB/c nude mice and SD rats were used for pharmacokinetic experiments. All animals were purchased from Shanghai SIPPR-Bk Lab Animal Co., Ltd. All animals were housed under a regimen of 12 h light/12 h dark cycles and specific pathogen-free conditions. 5×10^6 NCI-H526, ES-2, MDA-MB231, A2780, A375, B16F10, and TMD-8 cells (0.1 ml) were injected subcutaneously into female nude mice. The melanoma patient-derived xenograft model was derived from a human melanoma sample (BRAF, NARS and NF1 wild type, and p53 mutant) removed from a patient in Xiangya Hospital. Surgically removed tumor fragments were implanted subcutaneously into female NSG mice. When the tumors grew to ~1000 mm^3, they were harvested and cryopreserved or immediately re-implanted for expansion or experiments. Mouse body weight and tumor sizes were measured every 3 days. Once the tumors grew to 150–200 mm^3, mice were treated with the compounds as described in the Figures. 1 × 10^6 A2780 cells (1 ml) were injected into the abdominal cavity of nude mice. Ascitic volume and tumor weight were measured by an electronic balance. All the procedures were evaluated and approved by the Institutional Animal Care and Use Committee of Central South University and Yale University.
Supplementary Figure 9. […]
PO, oral administration; QD, once daily; BID, twice daily; D, day. (c,d) Tumor growth curves for ES2 ovarian tumor (c), MDA-MB231 breast tumor (d) bearing mice treated with the indicated compounds for 21 days. Compounds were orally administrated once daily. Data are presented as mean ± SEM from 6 different mice. p values were calculated using two-tailed, unpaired t tests.
**, p<0.01; ***, p<0.001. Source data are provided as a Source Data file. […]

[2] = system: A2780 tumor cells and TAMs; experiment: Direct co-culture of pretreated A2780 cells with TAMs, Ki67/CD68 staining; type: cell-based, mouse
Description: A2780 tumor cells were pretreated with 100 nM NHWD-870 and then directly co-cultured with TAMs (A2780:TAMs ratio as 4:1) at the density of 1 × 10^5 total cells in a 12-well. Shown are immunofluorescent staining of Ki67 and CD68 (a) and quantification of Ki67+ and CD68− or CD68+ cells (b). Scale bar is 50 μm. […] A2780 cells (pre-treated with or without 100 nM NHWD-870 for 48 h) were seeded into the top chamber (transwell size: 0.4 μm) and TAMs (Mac, 40,000 cells per 24-well) in medium containing 2% matrigel were seeded into the bottom chamber pre-coated with Matrigel. No NHWD-870 was added to the co-culture. The upper chamber without A2780 cells was used as a control. Shown are schematics of transwell co-culture experiment (c), representative pictures of TAM spheroid (d: black/white), and quantification of spheroid volumes (e). Scale bar is 50 μm. […] Data are presented as mean ± SEM from three independent experiments. g CSF1 protein levels in supernatant of 10^6 ID8, B16, A2780, SKOV3, and A375 cells treated with DMSO or 25 nM NHWD-870 for 24 h, as measured by ELISA. […] Scale bar is 20 μm. i Quantification of CSF1 staining in DMSO or 100 nM NHWD-870 treated A2780 cells. […] Shown are representative immunofluorescent staining of CSF1 (green) and CD68 (red) (j) and quantification of CSF1 staining (k). […]

Cc1nnn(C)c1-c1cnc2c3c4cnn(C)c4ccc3n([C@H](c3ccccc3)C3CCOCC3)c2c1 [NHWD-870]
MDA-MB231 tumor size (Sup Fig.9d; quantity and unit not given) ([1]; 1mg/kg p.o. QD x 21D, day 0, individual animals): 279.42 and 121.19 and 223.85 and 207.81 and 142.25 and 116.01 | MDA-MB231 tumor size (Sup Fig.9d; quantity and unit not given) ([1]; 1mg/kg p.o. QD x 21D, day 3, individual animals): 342.36 and 216.69 and 301.84 and 236.23 and 182.39 and 129.14 | MDA-MB231 tumor size (Sup Fig.9d; quantity and unit not given) ([1]; 1mg/kg p.o. QD x 21D, day 7, individual animals): 454.4 and 329.94 and 520.71 and 309.24 and 176.3 and 192.56 | MDA-MB231 tumor size (Sup Fig.9d; quantity and unit not given) ([1]; 1mg/kg p.o. QD x 21D, day 10, individual animals): 681 and 486.76 and 545.06 and 482.5 and 217.9 and 268.16 | MDA-MB231 tumor size (Sup Fig.9d; quantity and unit not given) ([1]; 1mg/kg p.o. QD x 21D, day 14, individual animals): 889.946 and 639.335 and 784.126 and 538.093 and 253.479 and 345.127 | MDA-MB231 tumor size (Sup Fig.9d; quantity and unit not given) ([1]; 1mg/kg p.o. QD x 21D, day 17, individual animals): 973.96 and 796.38 and 1110.48 and 713.45 and 300.77 and 432.71 | MDA-MB231 tumor size (Sup Fig.9d; quantity and unit not given) ([1]; 1mg/kg p.o. QD x 21D, day 21, individual animals): 1038.8 and 904.78 and 1426.58 and 1004.43 and 413.96 and 626.93 | MDA-MB231 tumor size (Sup Fig.9d; quantity and unit not given) ([1]; 3mg/kg p.o. QD x 21D, day 0, individual animals): 118.16 and 163.39 and 132.22 and 223.66 and 238.14 and 193.21 | MDA-MB231 tumor size (Sup Fig.9d; quantity and unit not given) ([1]; 3mg/kg p.o. QD x 21D, day 3, individual animals): 111.38 and 180.22 and 170.04 and 238.46 and 333.75 and 199.82 | MDA-MB231 tumor size (Sup Fig.9d; quantity and unit not given) ([1]; 3mg/kg p.o. QD x 21D, day 7, individual animals): 184.36 and 185.35 and 194.47 and 370.49 and 294.2 and 222.64 | MDA-MB231 tumor size (Sup Fig.9d; quantity and unit not given) ([1]; 3mg/kg p.o. QD x 21D, day 10, individual animals): 223.77 and 229.36 and 217.46 and 450.48 and 331.57 and 251.49 | MDA-MB231 tumor size (Sup Fig.9d; quantity and unit not given) ([1]; 3mg/kg p.o. QD x 21D, day 14, individual animals): 325.631 and 331.431 and 303.664 and 453.402 and 392.114 and 282.288 | MDA-MB231 tumor size (Sup Fig.9d; quantity and unit not given) ([1]; 3mg/kg p.o. QD x 21D, day 17, individual animals): 488.17 and 465.37 and 409.38 and 652.35 and 540.67 and 429.56 | MDA-MB231 tumor size (Sup Fig.9d; quantity and unit not given) ([1]; 3mg/kg p.o. QD x 21D, day 21, individual animals): 586.22 and 557.41 and 558.02 and 759.6 and 643.46 and 481.28 | effect on tumor growth ([1]; MDA-MB231 TNBC, oral once daily 21 days): strong tumor-suppressive effects | quantification of Ki67+ and CD68+ cells ([2]; A2780 pretreated with 100 nM, direct co-culture with TAMs): 0 | inhibition at 0.1 µM ([2]; pre-treatment of A2780 cells with 100 nM, read-out: inhibition of the proliferation rate of TAMs): 83%
